Reference: patent publication US20230310459A1, “NEUROACTIVE STEROIDS AND THEIR METHODS OF USE” (Sage Therapeutics, Inc., priority 2017, published 2023)
Entries after “also recorded” stand apart in the source; their conditions may differ. Marks after values point to notes of the source that are not given here.

Legend:
Type in all cases: in vivo, human
[1] = Phase 2 open-label study (Part A): plasma pharmacokinetics; conditions: 30 mg oral solution once daily with food, N=13
Procedure: (§1) Compound 1 was provided as a 6 mg/mL stock aqueous solution, which was further diluted with sterile water to achieve the selected dose that was administered as an oral solution. Participants received an open label 30 mg Compound 1 oral dose administered at 8:00 PM (+/−15 minutes) with food on Days 1 through 14. Subjects who experienced drug-related moderate or severe adverse events (as judged by the study investigators) while receiving the 30 mg dose of study drug were to have their dose reduced to 20 mg for the remaining treatment period. Any subjects not tolerating a 20 mg dose were to be terminated from the study. Vital signs were collected daily. Other study procedures and plasma collection for PK parameters were conducted at various times during the 14-day open label treatment period (procedure details in the Supplemental Appendix). Treatment follow-up was conducted on an outpatient basis and included a follow-up visit at 1 week (21+/−1 day) and at 2 weeks (28+/−1 day) after the last dose of the study drug.
(§2) The primary endpoint of safety and tolerability of Compound 1 was assessed by the frequency and severity of adverse events, vital signs, changes in clinical laboratory measures, physical exams, electrocardiograms (ECGs), the Stanford Sleepiness Scale (SSS) score, and suicide ideation using the Columbia-Suicide Severity Rating Scale (C-SSRS, Supplemental Table 1). Secondary efficacy endpoints included: change from baseline in HAM-D total score, HAM-D response, defined as having a 50% or greater reduction from baseline in HAM-D total score, HAM-D remission, defined as having a HAM-D total score of ≤7, HAM-A change from baseline, and MADRS score change from baseline. The PK profile of Compound 1 was also determined from plasma samples.

[2] = test system: Adult patients with moderate to severe Major Depressive Disorder (MDD); experiment: Phase 2 double-blind placebo-controlled trial (Part B): safety and tolerability
Procedure: In the randomized, double-blind, parallel-group, placebo-controlled trial, eligible patients (with a minimum total score of 22 on the Hamilton Rating Scale for Depression) were stratified based on use of antidepressant treatment (current/stable or not treated/withdrawn ≥30 days) and randomized in a 1:1 ratio to receive Compound 1 Capsules (30 mg) or matching placebo. All doses of study drug were administered at night with food. The study consisted of a 14-day treatment period, and a 4-week follow-up period. The mean HAM-D total scores at baseline were 25.2 for the Compound 1 group and 25.7 for the placebo group (overall range 22-33), representing patients with moderate to severe MDD. Approximately 90 percent of patients in each group completed the study.

[3] = test system: Subjects with Major Depressive Disorder; experiment: Phase 2 open-label study (Part A): safety and tolerability (TEAEs, C-SSRS); conditions: N=13
Procedure: (§3) In this multicenter, open-label, Phase 2 clinical trial, subjects were administered 30 mg Compound 1 on Days 1-14 and assessed through Day 28. Reductions in depressive and anxiety symptoms were assessed by the Hamilton Rating Scales for Depression and Anxiety (HAM-D and HAM-A), and the Montgomery-Asberg Depression Rating Scale (MADRS). Safety and tolerability were assessed via standard safety parameters. Pharmacokinetic parameters were also evaluated.
as §1, §2
Subjects were monitored for safety during the Treatment and Follow-up Periods including monitoring for adverse events/serious adverse events, routine clinical laboratory assessments, physical examination, vital signs, and ECG. During the Treatment Period, subjects received study drug as long as there are no dose-limiting safety/tolerability concerns

[4] = test system: Subjects with Major Depressive Disorder; experiment: Phase 2 open-label study (Part A): HAM-D, MADRS, HAM-A efficacy
Procedure: as §3
Written informed consent was provided at screening and was required for enrollment. The diagnosis of MDD was made using the Structured Clinical Interview for Diagnostic and Statistical Manual of Mental Disorders, Fifth Edition (DSM-5) Axis I Disorders (SCID-I), as performed by a qualified healthcare professional. Subjects were also screened with the 17-item Hamilton Rating Scale for Depression (HAM-D) to ensure symptom severity of at least 22. Hamilton Anxiety Rating Scale (HAM-A), Montgomery-Asberg Depression Rating Scale (MADRS), and Clinical Global Impression-Severity (CGI-S) scale were also administered. Using the 17-item HAM-D scale, a patient with a summed score of 17-23 was considered to have moderate depression; a summed score of ≥24 was considered severe depression. Patient histories and concomitant medication information were collected. The study population included subjects of both sexes, ages 18-65 years old, inclusive (inclusion/exclusion criteria below). Subjects remained as inpatients during the first 7 days of the study period and per Investigator's judgement thereafter. Subjects received the standard of care for adult inpatients diagnosed with MDD and were allowed to remain on a stable dose of psychotropic medications that were initiated at least 14 days prior to screening.
as §1, §2
Continuous parameters were summarized as n, mean, and standard deviation, with categorical variables summarized as frequency counts and percentages. For HAM-D, HAM-A, and MADRS total scores, p-values for change from baseline values were calculated based on mixed effects model for repeated measures with visit as fixed effect, adjusting for baseline total score. […]

[5] = Day 15, 30 mg once daily Days 1-14, N=13

## C[C@@]1(O)CC[C@H]2[C@H](CC[C@@H]3[C@@H]2CC[C@]2(C)[C@@H](C(=O)Cn4cc(C#N)cn4)CC[C@@H]32)C1 [Compound 1, 1-(2-((3R,5R,8R,9R,10S,13S,14S,17S)-3-hydroxy-3,13-dimethylhexadecahydro-1H-cyclopenta[a]phenanthren-17-yl)-2-oxoethyl)-1H-pyrazole-4-carbonitrile]
[1]; Day 7, steady state
  Cavg ss, geometric mean: 41.4 ng/mL
[1]; human, plasma, Day 7, steady state, MDD subjects, read-out: Cmax, geometric mean
  Cmax: 101 ng/mL
[1]; human, plasma, Day 7, steady state, read-out: AUC0-t, geometric mean
  AUC(0-t): 992 ng·h/mL
[1]; human, plasma, Day 7, steady state, read-out: AUCinf, geometric mean
  AUC(0-inf): 1150 ng·h/mL
[1]; human, plasma, Day 7, read-out: T1/2, median (converted)
  half-life: 10.3 h
[1]; human, plasma, Day 7, read-out: Tmax, median
  Tmax: 1.1 h
[2]; Capsules 30 mg for 14 days
  deaths, serious or severe adverse events: no deaths, serious or severe adverse events
  most common AEs: headache, dizziness, nausea, and somnolence
  tolerability: generally well-tolerated; also recorded: generally well tolerated
[2]; Capsules 30 mg for 14 days, placebo 46%
  overall incidence of patients who experienced adverse events: 53%
[2]; two patients, none with placebo
  rate of discontinuation from dosing of study drug due to adverse events: 4.4%
[3]; 30 mg once daily Days 1-14
  At least one TEAE, number of subjects: 12 subjects
  tolerability: generally well tolerated
[3]; Day 2-15 (yes on Days 10-13)
  C-SSRS Subject engaged in non-suicidal self-injurious behavior, number of subjects who answered yes: 1*
[3]; Day 2-15
  C-SSRS Aborted attempt, number of subjects who answered yes: 0
  C-SSRS Actual attempt, number of subjects who answered yes: 0
  C-SSRS Interrupted attempt, number of subjects who answered yes: 0
  C-SSRS Preparatory acts or behavior, number of subjects who answered yes: 0
  C-SSRS Suicidal behavior, number of subjects who answered yes: 0
[3]
  Dizziness, number of subjects: 3 subjects
  Dizziness, percent of subjects: (23.1%)
  Drug-related TEAE, number of subjects: 11 subjects
  Drug-related TEAE, percent of subjects: (84.6%)
  Headache, number of subjects: 4 subjects
  Headache, percent of subjects: (30.8%)
  Myalgia, number of subjects: 3 subjects
  Myalgia, percent of subjects: (23.1%)
  Nasal Congestion, number of subjects: 2 subjects
  Nasal Congestion, percent of subjects: (15.4%)
  Sedation, number of subjects: 6 subjects
  Sedation, percent of subjects: (46.2%)
  Serious AE, number of subjects: 0 subjects
  Severe TEAE, number of subjects: 0 subjects
  Somnolence, number of subjects: 3 subjects
  Somnolence, percent of subjects: (23.1%)
  TEAE leading to death, number of subjects: 0 subjects
  TEAE leading to drug discontinuation, number of subjects: 0 subjects
  changes in clinical hematology, urinalysis, vital signs, or ECGs: no clinically relevant changes
  serious adverse events (SAEs) or discontinuations due to AEs: no serious adverse events (SAEs) or discontinuations due to AEs
[4]; Day 15, end of the treatment period, N=13
  HAM-D remission rate (HAM-D total score ≤7): 62%
[4]; [5]
  HAM-A total score, mean decrease from baseline: 15.5 points
  HAM-D total score, mean decrease from baseline: 19.9 points
  MADRS total score, mean decrease from baseline: 26.4 points
[4]; Day 15, 30 mg once daily Days 1-14, baseline 23.2, N=13
  HAM-A mean total score: 7.7
[4]; Day 15, 30 mg once daily Days 1-14, baseline 36.9, N=13
  MADRS mean total score: 10.5
[4]; Day 15, 30 mg oral solution once daily Days 1-14 with food, baseline 27.2, N=13
  HAM-D mean total score: 7.3
[4]; Day 15, absence of antidepressants at enrollment (n=8)
  HAM-D response rate: 75.0%
[4]; Day 15, all 13 subjects
  HAM-D response rate (total score reduced by at least 50%): 85%
[4]; Day 15, presence of antidepressants at enrollment (n=5)
  HAM-D response rate: 100%
[4]; Day 28, absence of antidepressants at enrollment (n=8)
  HAM-D response rate: 75%
[4]; Day 28, presence of antidepressants at enrollment (n=5)
  HAM-D response rate: 80%
[4]; by Day 6, N=13
  HAM-D remission rate (HAM-D total score ≤7): 39%
[4]; p<0.05, 30 mg once daily
  time at which significant reductions in depressive symptoms (HAM-D) were seen: as early as Day 2
